Measured values taken from US20050187208A1 (priority 2004, published 2005).
Counter-ions that a name gives are not always drawn.

How the values were obtained:
[1] = target: T1, transfected human CB1 receptor (Homo sapiens, UniProt P21554); assay: In-vitro determination of affinity to CB1 receptor, radioligand [^3H]-CP55940; format: binding; settings: read-out: CB1 Receptor % Inhibition 10^−6 M
T1 construct: purchased Receptor Biology, Inc
Experimental: I. In-vitro Determination of Affinity to CB1/CB2-Rezeptors
The in-vitro determination of the affinity of the inventive substituted azetidine compounds to CB1/CB2-Receptors is carried out as described in the publication of Ruth A. Ross, Heather C. Brockie et al., “Agonist-inverse agonist characterization at CB1 and CB2 cannabinoid receptors of L-759633, L759656 and AM630”, British Journal of Pharmacology, 126, 665-672, (1999). The respective parts of the descriptions are hereby incorporated by reference and form part of the present disclosure. The transfected human CB1 and CB2 receptor are obtained from Receptor Biology, Inc. The radioligand used for both receptors is [^3H]-CP55940.
The affinity of the inventive substituted azetidine compounds to CB1/CB2 receptors is determined as described above.

cannabinoid receptors [2] = assay: Mouse tetrad model, antagonistic effect against Win 55212-2; format: in vivo; parameters: unit not given here; settings: 5 mg/kg i.v. prior to Win 55212-2 1.25 mg/kg i.v.; male NMRI mice
Description: (§1) Substances with affinity for cannabinoid receptors are known to produce a wide range of pharmacological effects. It is also known that intravenous administration of a substance with affinity for cannabinoid receptors in mice produces analgesia, hypothermia, sedation and catalepsy. Individually, none of these effects can be considered as proof that a tested substance has affinity for cannabinoid-receptors, since all of these effects are common for various classes of centrally active agents. However, substances, which show all of these effects, i.e. substances that are active in this so-called tetrad model are considered to have affinity for the cannabinoid receptors. It has further been shown that cannabinoid receptor antagonists are higly effective in blocking the effects of a cannabinoid agonist in the mouse tetrad model.
(§2) The tetrad model is described, for example, in the publication of A. C. Howlett et al, International Union of Pharmacology XXVII. Classification of Cannabinoid Receptors, Pharmacol Rev 54, 161-202, 2002 and David R. Compton et al., “In-vivo Characterization of a Specific Cannabinoid Receptor Antagonist (SR141716A): Inhibition of Tetrahydrocannbinol-induced Responses and Apparent Agonist Activity”, J. Pharmacol. Exp. Ther. 277, 2, 586-594, 1996. The corresponding parts of the description are hereby incorporated by reference.
(§3) Male NMRI mice with a weight of 20-30 g (Harlan, Barcelona, Spain) are used in all of the following experiments.
(§4) Before testing in the behavioral procedures given below, mice are acclimatized to the experimental setting. Pre-Treatment control values are determined for analgesia hot plate latency (in seconds), rectal temperature, sedation and catalepsy.
(§5) In order to determine the agonistic activty of the substance to be tested, the mice are injected intravenously with the substance to be tested or the vehicle alone. 15 minutes after injection, latency in hot plate analgesia is measured. Rectal temperature, sedation and catalepsy are measured 20 minutes after injection.
In order to determine the antagonistic activity the identical procedure is used as for the determination of the agonistic effects, but with the difference that the substance to be evaluated for its antagonistic activity is injectected 5 minutes before the intravenous injection of 1.25 mg/kg Win-55,212 a known cannabinoid-receptor agonist.
(§6) The hot plate analgesia is determined according to the method described in Woolfe D. et al. “The evaluation of analgesic action of pethidine hydrochloride (Demerol)”, J. Pharmacol. Exp. Ther. 80, 300-307, 1944. The respective description is hereby incorporated by reference and forms part of the present disclosure.
(§7) The mice are placed on a hot plate (Harvard Analgesimeter) at 55±0.5° C. until they show a painful sensation by licking their paws or jumping and the time for these sensations to occur is recorded. This reading is considered the basal value (B). The maximum time limit the mice are allowed to remain on the hot plate in absence of any painful response is 40 seconds in order to prevent skin damage. This period is called the cut-off time (PC).
(§8) Fifteen minuts after the administration of the substance to be tested, the mice are again placed on the hot plate and the afore described procedure is repeated. This period is called the post-treatment reading (PT).
(§9) The degree of analgesia is calculated from the formula: % MPE of Analgesia=(PT−B)/(PC−B)×100 • MPE Maximum possible effect. Determination of Sedation and Ataxia
(§10) Sedation and ataxia is determined according to the method described in Desmet L. K. C. et al. “Anticonvulsive properties of.Cinarizine and Flunarizine in Rats and Mice”, Arzneim. -Forsch. (Frug Res) 25, 9, 1975. The respective description is hereby incorporated by reference and forms part of the present disclosure.
The chosen scoring system is • 0: no ataxia; • 1: doubful; • 2: obvious calmness and quiet; • 3 pronounced ataxia; prior to as well as after treatment. […]

cannabinoid receptors [3] = assay: Mouse tetrad model, agonistic effect (hot plate, hypothermia, catalepsy, sedation); format: in vivo; parameters: key to Agonistic effect A: Hot-Plate test: % MPE = (PT−B)/(PC−B)×100; key to Agonistic effect D: Sedation: % sedation = mean score (0-3)/3×100; Agonistic effect B: Hypothermia: unit not given here; settings: 5 mg/kg i.v., male NMRI mice; for Agonistic effect A: Hot-Plate test: 15 minutes after injection; for Agonistic effect B: Hypothermia / Agonistic effect C: Catalepsy / Agonistic effect D: Sedation: 20 minutes after injection
Description: as §1, §2, §3, §4, §5, §6, §7, §8, §9, §10
The chosen scoring system is • 0: no ataxia; • 1: doubful; • 2: obvious calmness and quiet; • 3 pronounced ataxia; prior to as well as after treatment.
The percentage of sedation is determined according to the formula: % of sedation=arithmetic mean/3×100 Hypothermia: […]

T1 sequence (P21554 whole entry): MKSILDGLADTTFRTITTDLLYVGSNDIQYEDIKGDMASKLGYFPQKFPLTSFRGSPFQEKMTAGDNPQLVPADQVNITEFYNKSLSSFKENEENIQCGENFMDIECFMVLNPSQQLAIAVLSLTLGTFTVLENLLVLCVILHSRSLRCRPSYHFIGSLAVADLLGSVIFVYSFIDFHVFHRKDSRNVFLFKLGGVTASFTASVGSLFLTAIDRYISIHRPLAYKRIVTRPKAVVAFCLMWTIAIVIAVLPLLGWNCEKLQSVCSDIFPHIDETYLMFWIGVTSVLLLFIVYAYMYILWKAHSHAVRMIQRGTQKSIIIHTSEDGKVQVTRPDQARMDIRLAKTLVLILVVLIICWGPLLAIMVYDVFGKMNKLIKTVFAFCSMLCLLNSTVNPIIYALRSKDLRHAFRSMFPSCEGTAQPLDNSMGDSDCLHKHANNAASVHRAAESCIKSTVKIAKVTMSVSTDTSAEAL

Row | melting point [°C] | SMILES | further results
1 | 173 to 175 | Cc1nn(C)c(C)c1S(=O)(=O)N[C@H]1CN(C(c2ccc(Cl)cc2)c2ccc(Cl)cc2)[C@@H]1C | 
2 | 173 to 176 | Cc1c(S(=O)(=O)N[C@H]2CN(C(c3ccc(Cl)cc3)c3ccc(Cl)cc3)[C@@H]2C)cnn1-c1ccccc1 (stereo in doubt) | 
3 | 177 to 180 | CC(=O)c1ccc(S(=O)(=O)N[C@H]2CN(C(c3ccc(Cl)cc3)c3ccc(Cl)cc3)[C@@H]2C)cc1 (stereo in doubt) | 
4 | 57 to 60 | C[C@H]1[C@H](NC(=O)c2cc(F)cc(F)c2)CN1C(c1ccc(Cl)cc1)c1ccc(Cl)cc1 | 
5 | 182 to 186 | C[C@@H]1C(N(C)S(=O)(=O)c2ccc(F)cc2)CN1C(c1ccc(Cl)cc1)c1ccc(Cl)cc1 (stereo in doubt) | 
6 | 171 to 174 | C[C@@H]1[C@@H](NS(=O)(=O)c2cccc3ccccc23)CN1C(c1ccc(Cl)cc1)c1ccc(Cl)cc1 (stereo in doubt) | 
7 | 164 to 169 | C[C@@H]1[C@@H](NS(=O)(=O)c2c(Cl)nc3sccn23)CN1C(c1ccc(Cl)cc1)c1ccc(Cl)cc1 (relative stereo) | 
8 | 105 to 108 | Cc1c(S(=O)(=O)N[C@H]2CN(C(c3ccc(Cl)cc3)c3ccc(Cl)cc3)[C@@H]2C)sc2ccc(Cl)cc12 (stereo in doubt) | 
9 | 156 to 160 | C[C@@H]1[C@@H](NS(=O)(=O)c2ccc3ccccc3c2)CN1C(c1ccc(Cl)cc1)c1ccc(Cl)cc1 (stereo in doubt) | 
10 | 122 to 127 | C[C@H]1[C@H](NC(=O)C(F)(F)F)CN1C(c1ccc(Cl)cc1)c1ccc(Cl)cc1 (stereo in doubt) (as salt: TFA) | 
11 | 134 to 136 | C[C@H]1[C@H](N)CN1C(c1ccc(Cl)cc1)c1ccc(Cl)cc1 (stereo in doubt) | 
12 | 65 to 68 | C[C@H]1[C@H](NC(=O)C2CCCCC2)CN1C(c1ccc(Cl)cc1)c1ccc(Cl)cc1 | 
13 | 154 to 157 | C[C@H]1C(NS(=O)(=O)c2ccc(F)cc2)CN1C(c1ccc(Cl)cc1)c1ccc(Cl)cc1 (mixture of isomers) | 
14 | 91 to 97 | CCCN([C@H]1CN(C(c2ccc(Cl)cc2)c2ccc(Cl)cc2)[C@@H]1C)S(=O)(=O)c1ccc(F)cc1 (stereo in doubt) | 

More lines, now with the values behind:

Row | SMILES | melting point [°C] | further results
15 | C[C@@H]1[C@@H](N(S(=O)(=O)c2ccc(F)cc2)S(=O)(=O)c2ccc(F)cc2)CN1C(c1ccc(Cl)cc1)c1ccc(Cl)cc1 | 60 to 64 | 
16 | C[C@@H]1[C@@H](NS(=O)(=O)c2ccc(-c3ccccc3)cc2)CN1C(c1ccc(Cl)cc1)c1ccc(Cl)cc1 (relative stereo) | 145 to 148 | 
17 | C[C@@H]1[C@@H](OS(=O)(=O)c2ccc(F)cc2)CN1C(c1ccc(Cl)cc1)c1ccc(Cl)cc1 (relative stereo) [Example 1, 4-Fluoro-benzenesulfonic acid-trans-1-[bis-(4-chloro-phenyl)-methyl]-2-methyl-azetidin-3-yl ester] | 105 to 107 | inhibition at 1 µM [1]: 60%; Antagonistic Effect A: Hot-Plate test (cannabinoid receptors [2]): 46; Antagonistic Effect C: Catalepsy (cannabinoid receptors [2]): 47
18 | C[C@@H]1[C@@H](NS(=O)(=O)c2ccc(F)cc2)CN1C(c1ccc(Cl)cc1)c1ccc(Cl)cc1 [Example 33, N-{(2R,3S)-1-[Bis-(4-chloro-phenyl)-methyl]-2-methyl-azetidin-3-yl}-4-fluoro-benzenesulfonamide] | 154 to 158 | inhibition at 1 µM [1]: 71%
19 | C[C@@H]1[C@@H](NS(=O)(=O)c2ccc(Oc3ccc(Br)cc3)cc2)CN1C(c1ccc(Cl)cc1)c1ccc(Cl)cc1 (stereo in doubt) | 115 to 119 | 
20 | C[C@@H]1[C@@H](NS(=O)(=O)c2csc3ccccc23)CN1C(c1ccc(Cl)cc1)c1ccc(Cl)cc1 (relative stereo) [Example 25, Benzo[b]thiophene-3-sulfonic acid {trans-1-[bis-(4-chloro-phenyl)-methyl]-2-methyl-azetidin-3-yl}amide] | 192 to 197 | inhibition at 1 µM [1]: 87%
21 | C[C@@H]1[C@@H](NS(=O)(=O)c2cccc3nsnc23)CN1C(c1ccc(Cl)cc1)c1ccc(Cl)cc1 (relative stereo) [Example 15, 2,1,3-Benzothiadiazole-4-sulfonic acid {trans-1-[bis-(4-chloro-phenyl)-methyl]-2-methyl-azetidin-3-yl}-amide] |  | inhibition at 1 µM [1]: 66%; Agonistic effect A: Hot-Plate test (cannabinoid receptors [3]): 14; Agonistic effect B: Hypothermia (cannabinoid receptors [3]): 0; Agonistic effect C: Catalepsy (cannabinoid receptors [3]): 0; Agonistic effect D: Sedation (cannabinoid receptors [3]): 0; Antagonistic Effect A: Hot-Plate test (cannabinoid receptors [2]): 72; Antagonistic Effect B: Hypothermia (cannabinoid receptors [2]): 100; Antagonistic Effect C: Catalepsy (cannabinoid receptors [2]): 57; Antagonistic Effect D: Sedation (cannabinoid receptors [2]): 71
22 | C[C@@H]1[C@@H](N(Cc2ccc(F)cc2)S(=O)(=O)c2ccc(F)cc2)CN1C(c1ccc(Cl)cc1)c1ccc(Cl)cc1 (stereo in doubt) | 75 to 78 | 
23 | C[C@@H]1[C@@H](NS(=O)(=O)c2ccc(Oc3ccccc3)cc2)CN1C(c1ccc(Cl)cc1)c1ccc(Cl)cc1 (stereo in doubt) | 160 to 162 | 
24 | C[C@@H]1[C@@H](NS(=O)(=O)c2ccc(S(C)(=O)=O)cc2)CN1C(c1ccc(Cl)cc1)c1ccc(Cl)cc1 (relative stereo) [Example 14, N-{trans-1-[Bis-(4chloro-phenyl)methyl]-2-methyl-azetidin-3-yl}-4-methylsulfonyl-benzenesulfonamide] | 202 to 204 | inhibition at 1 µM [1]: 82%; Agonistic effect A: Hot-Plate test (cannabinoid receptors [3]): 16; Agonistic effect B: Hypothermia (cannabinoid receptors [3]): 0; Agonistic effect C: Catalepsy (cannabinoid receptors [3]): 0; Agonistic effect D: Sedation (cannabinoid receptors [3]): 0; Antagonistic Effect A: Hot-Plate test (cannabinoid receptors [2]): 12; Antagonistic Effect B: Hypothermia (cannabinoid receptors [2]): 71; Antagonistic Effect C: Catalepsy (cannabinoid receptors [2]): 14; Antagonistic Effect D: Sedation (cannabinoid receptors [2]): 9
25 | C[C@@H]1[C@@H](NS(=O)(=O)CCc2cccc3ccccc23)CN1C(c1ccc(Cl)cc1)c1ccc(Cl)cc1 (stereo in doubt) | 123 to 128 | 
26 | C[C@@H]1[C@@H](NS(=O)(=O)c2cc(Cl)cc(Cl)c2)CN1C(c1ccc(Cl)cc1)c1ccc(Cl)cc1 (relative stereo) [Example 18, N-{trans-1-[Bis-(4-chloro-phenyl)-methyl]-2-methyl-azetidin-3-yl}-3,5-dichloro-benzenesulfonamide] | 144 to 146 | inhibition at 1 µM [1]: 95%
